Measured values published in US6043283A, “Tyramine compounds and their neuronal effects” (priority 1997, dated 2000).
“Also recorded” adds a separate entry of the source. Like-named read-outs stand apart in the source and are kept apart here.

How the values were obtained:
[1] = test system: NTox released by Aβ1-42-stimulated microglia (neuron killing); assay: cells; format: cell-based, rat
From the text: . Briefly, hippocampal cells obtained from embryonic stage 18 rat fetuses were dispersed mechanically in the presence of 0.125% trypsin and plated onto poly-L-lysine coated glass coverslips in 24 well plates at 250,000 cells per well (resulting in adhering cell densities of about 1250 cells per mm^2) in chemically-defined N2 culture media containing 5% fetal bovine serum. Gradual reduction of serum began on day 10 in vitro with daily 1:1 volume replacements with chemically-defined media, until a final concentration of 0.6% serum was achieved. […]; see FIG. 18). In order to eliminate microglia, cultures were exposed to saporin (sap; a ribosome-inactivating protein; Davis and Wiley, 1989) coupled to acetylated LDL (ac-LDL) at a concentration of 10 μg/ml for 12 hours. […] Cultures depleted of microglia were then exposed to test substances in the presence or absence of exogenous microglia (100,000 cells per culture). […]. Controls included cultures without saporin-treatment, cultures without test substances, and cultures with test substances but lacking microglia.
(§1) On day 14 of culture, immediately following saporin treatment, test substances were added to the hippocampal cultures. Synthetic peptide were supplied as 1 mM stock solutions in 0.1 M phosphate buffered saline, pH 7.2, stored for at least 1 week at 4° C. before use. After 72 hours incubation, the cultures were fixed in 4% paraformaldehyde at room temperature for 18 hours and immuno-stained by overnight incubation with a mixture of anti-neurofilament antibodies (NF; SMI-311, 1:600; Stemberger Monoclonals, Inc.) plus anti-MAP-2 (Boehringer Mannheim, 184959; 1:600) at 4° C. in the presence of 2% horse serum and 0.3% triton X-100 to delineate both neuronal cell bodies and neurites. Astroglia were visualized using sheep anti-glial fibrillary acidic protein (GFAP, Sigma) as described by Giulian et al., 1989. Finally, to label all cell nuclei, the coverslips were exposed to 0.01% bisbenzimide (Hoechst 33258; Sigma) in PBS, pH 6.9, and rinsed in distilled water and mounted in glycerin. Immuno-labeled cells per field and nuclei per field were scored at 200X magnification using fluorescence microscopy. Data were expressed as % mean survival expressed in terms of parallel untreated control cultures after scoring at least 20 randomly selected fields for each of 3 coverslips.
The procedures described above and by Giulian et al, 1996, provided for the identification of tyramine compounds as therapeutic agents for neurodegenerative diseases or disorders including, for example, Alzheimer's disease. Cells from the brain of fetal rats were grown in tissue cultures. Microglial populations within the cultures were controlled following the method described in Example 5 above. Known amounts of Aβ peptides coupled to microspheres were added to the culture. The Aβ spheres stimulated the microglia to release NTox, which in turn destroyed the neurons. The neurons in the cultures were monitored for survival by immuno-staining.
Generally, drug assays involve the addition of known concentrations of a test agent over a range of concentrations. After 72 hours, the experiment is stopped and the neurons are identified by immuno-staining. The data is expressed as % neuronal survival […]. Dose response curves are then used to estimate Effective Dose50 % (ED50) of neuroprotective agents. […].
In this experiment, about 65% of the neurons were destroyed by the Aβ-stimulated microglia. […] Other tyramine compounds, including tyrosine esters, were neuroprotective (FIG. 30).
Following the methods described herein, numerous compounds were examined to determine their neuroprotective activity. […]

NTox = assay: protection of neurons against isolated NTox applied directly; format: cell-based; details: isolated NTox; FIGS. 13, 32
From the text: FIG. 32 is a graph showing the specificity of tyramine compounds to NTox. […].
Initial studies to characterize the neuroprotective effect of tyramine compounds employed microglia-neuron co-culture assays in the presence of Aβ or isolated senile plaques. Inhibition of neuron killing in […]--inhibition of microglial activation by Aβ or plaques; inhibition of NTox production and release by microglia; or inhibition of action of NTox upon neurons. […] Effective doses in the low nmolar range show the tyramine compounds to be very potent agents compared with low μmolar range of other neuroprotective drugs under development for neurological disorders.

quinolinic acid (QUIN) = assay: protection of neurons against quinolinic acid; format: cell-based; details: QUIN (100 μM in FIG. 13)
From the text: FIG. 32 is a graph showing the specificity of tyramine compounds to NTox. […]

microglia = assay: inhibition of SpheresAβ1-42 binding to microglia; design: species or system rat; details: for SpheresAβ1-42 binding after enzymatic treatment of microglia: trypsin 5000 units/ml, heparinase 0.01 units/ml, chondroitinase ABC 0.02 units/ml
Description: (§2) Spheresmal-BSA (which bind to scavenger receptors) or SpheresAβ1-42 were incubated with microglia for 4 hours following pre-treatment of cells with trypsin (5000 units/ml at 37° C. for 60 min followed by inactivation with soybean trypsin inhibitor), with heparinase (heparin lyase EC 4.2.2.7; two consecutive treatments each of 0.01 units/ml for 60 min), or with chondroitinase ABC (chondroitin ABC lyase EC 4.3.3.4; two consecutive treatments each of 0.02 units/ml for 60 min). […] Microglia mixed with hippocampal neurons were treated with combinations of β-D-xyloside (1 mm), heparinase (0.02 units/ml), or chondroitinase (0.04 units/ml) and then exposed to plaques.
Each well then received 250,000 SpheresAβ1-42 or Spheresmal-BSA in the presence or absence of Aβ peptides, GAGs, or scavenger receptor ligands. Binding assays were carried out at 37° C. for 4 hours after which coverslips were dipped 10 times in phosphate buffer and fixed with 4% buffered paraformaldehyde. Microsphere adherence to cells was scored at 200 magnification with phase/fluorescence microscopy. Data, expressed as % inhibition of sphere binding, was calculated from total number of spheres per field noted for control cultures receiving spheres only. Values are based upon at least 3 coverslips from 2 independent experiments. […] Washed spheres were resuspended in 0.2 M borate buffer (pH 8.5) in the presence of 300 μg Aβ or 400 μg BSA in 6% DMSO. After overnight mixing at room temperature, the spheres were washed extensively and blocked by 1 M glycine (pH 8.0) for 30 minutes.

scavenger receptor = assay: inhibition of Spheresmal-BSA binding to microglia; design: species or system rat
Description: as §2
Each well then received 250,000 SpheresAβ1-42 or Spheresmal-BSA in the presence or absence of Aβ peptides, GAGs, or scavenger receptor ligands. Binding assays were carried out at 37° C. for 4 hours after which coverslips were dipped 10 times in phosphate buffer and fixed with 4% buffered paraformaldehyde. Microsphere adherence to cells was scored at 200 magnification with phase/fluorescence microscopy. Data, expressed as % inhibition of sphere binding, was calculated from total number of spheres per field noted for control cultures receiving spheres only. Values are based upon at least 3 coverslips from 2 independent experiments. […]

[2] = test system: Aβ1-42-stimulated microglia; format: cell-based, rat; details: for blocking of Aβ1-42 induced microglial neurotoxicity by peptides: 10 μmoles/liter peptide, 1 μmole/liter Aβ1-42; for IC50: read-out: ED50 (blocking of Aβ1-42 induced neurotoxicity), FIG. 16B
From the text: (§3) Briefly, hippocampal cells obtained from embryonic stage 18 rat fetuses were dispersed mechanically in the presence of 0.125% trypsin and plated onto poly-L-lysine coated glass coverslips in 24 well plates at 250,000 cells per well (resulting in adhering cell densities of about 1250 cells per mm^2) in chemically-defined N2 culture media containing 5% fetal bovine serum. Gradual reduction of serum began on day 10 in vitro with daily 1:1 volume replacements with chemically-defined media, until a final concentration of 0.6% serum was achieved. […] In order to eliminate microglia, cultures were exposed to saporin (sap; a ribosome-inactivating protein; Davis and Wiley, 1989) coupled to acetylated LDL (ac-LDL) at a concentration of 10 μg/ml for 12 hours. […] Cultures depleted of microglia were then exposed to test substances in the presence or absence of exogenous microglia (100,000 cells per culture). […] Controls included cultures without saporin-treatment, cultures without test substances, and cultures with test substances but lacking microglia.
as §1

[3] = test system: plaque-stimulated microglia; assay: blocking of plaque-induced microglial neurotoxicity; format: cell-based, rat; details: FIG. 16C
[4] = test system: reactive microglia in rat neocortex; assay: brain inflammatory response after infusion into neocortex of adult rat; format: in vivo; details: 0.5 nmoles Aβ1-42, co-infusion of 1.0 nmole peptide; 5 days
human microglia [5] = assay: induction of neuron-killing human microglia; format: cell-based; details: 1 μmole/liter synthetic peptides
[6] = format: physicochemical; details: chemically defined culture media, 37° C.; Table 2
From the text: Solubility of peptides is described for chemicallydefined culture media a […]

human microglia [7] = assay: nitrite/nitrate production, human microglia; format: cell-based
Description: Nitrites and nitrates, stable byproducts of nitric oxide synthetase (NOS) served as markers for nitric oxide (NO) synthesis (Ignarro, 1990). […]; for 24 to 72 hours incubated in the presence of neuritic/core plaques or Aβ peptides) were measured by the Griess method set forth by Beckman et al., 1990 against a standard curve ranging from 0.1 to 50.0 μM nitrate.

rat microglia [8] = assay: binding of Aβ-coupled microspheres to microglia; details: 4 hours at 37° C. (72 h in FIG. 23)
[9] = test system: rat microglia / hippocampal neurons; details: for induction of neurotoxic microglia / neuron killing: rat microglia, mostly 1 μmole/l
rat microglia [10] = format: binding; details: 6 hours, 37° C.
Description: Synthetic Aβ peptides were linked to Sepharose beads (Pharmacia) in coupling buffer (0.1 M NaHCO3, 0.5 M NaCl, pH 8.3) containing 20% DMSO. This solution was combined with an appropriate volume of CNBr-activated Sepharose 4B (10 mg protein per ml of bead; Pharmacia protocol) and mixed overnight on a platform mixer at room temperature. Remaining active groups on the beads were blocked by 1.0 M glycine and excess uncoupled peptides removed from this bead-peptide complex by washing with three cycles of alternating pH (0.1 M acetate buffer, pH 4.0, followed by 0.1 M Tris-HCL buffer, pH 8.0, each buffer containing 0.5 M NaCl). Coupled beads (10^4 per ml) were placed in 35 mm culture dishes covered with 250,000 adhering microglia at 37° C. in 1.5 ml N2 medium in accordance with the procedure of Giulian et al., 1995a. The numbers of microglia which detached from the plate and bound to coupled beads were determined at the end of a 6 hour incubation period by inverted phase microscopy with 100 beads scored from each of three sister cultures. Glycine and bovine serum albumin (BSA) coupled beads were used as controls.

hippocampal neurons = format: cell-based, rat; details: absence of microglia
From the text: as §3, §1

Compound: NCCc1ccc(O)cc1 [tyramine]
- protective effect ([1]; 10 μM, 72 hours, FIG. 30): completely prevented neuron death
- neuroprotective activity (structure/function) ([1]; Example 14): enhance neuroprotective effects
- EC50 ([1]; Rattus norvegicus, Aβ-stimulated microglia, 72 h, FIG. 31, read-out: ED50 (neuroprotection)): ~200 nM
- inhibition of killing action of NTox applied to neurons (NTox): prevented neuronal injury
- protection against quinolinic acid (quinolinic acid (QUIN)): did not occur with quinolinic acid

Compound: trypsin
- SpheresAβ1-42 binding after enzymatic treatment of microglia (microglia): reduced by trypsin
- SpheresAβ1-42 binding after enzymatic treatment of microglia (microglia; listed as trypsinization): markedly reduced
- Spheresmal-BSA binding after enzymatic treatment of microglia (scavenger receptor; trypsin 5000 units/ml, chondroitinase ABC 0.02 units/ml): reduced by trypsin

Compound: Aβ13-16: residues His13, His14, Gln15, and Lys16 (the HHQK domain within Aβ) (Amyloid-beta protein 42; UniProt P05067 684-687, looked up, fragment)
- blocking of Aβ1-42 induced microglial neurotoxicity by peptides [2]: blocked neurotoxin production
- blocking of Aβ1-42 induced microglial neurotoxicity by peptides ([2]; listed as HHQK): one of the most potent plaque suppressor peptides identified
- IC50 [2]: ~30 nM
- blocking of plaque-induced microglial toxicity by peptides [3]: blocked plaque-induced toxicity in vitro
- local brain inflammatory response [4]: blocks the interaction of Aβ1-42 with microglia in vivo and reduces the local brain inflammatory response; also recorded: markedly reduced

Compound: Aβ1-40: synthetic human β-amyloid peptide 1-40
- induction of neurotoxic human microglia (human microglia [5]): very potent inducers of neurotoxic human microglia; also recorded: stimulated release of neurotoxin from human microglia
- Solubility [6]: moderately soluble
- release of nitrate or nitrite, human microglia (human microglia [7]): did not bring about release of nitrate or nitrites
- binding of peptide-coupled microspheres to microglia (rat microglia [8]): marked glial binding
- neuron killing, microglia separated from neurons (no contact) [9]: stimulated microglia to destroy neurons
- ED50 (neuron killing via microglia) ([9]; 500 microglia per mm^2): ~80 nM
- induction of neurotoxic microglia / neuron killing ([9]; listed as A1-40): neuron killing could be induced
- killing of neurons ([9]; rat, hippocampal neurons, 72 h, 1 µM): 70-80%

Compound: Aβ1-28: Aβ peptide residues 1-28
- microglial adherence to coupled Sepharose beads (rat microglia [10]): promoted cell binding; also recorded: promoted bead binding
- induction of neurotoxic human microglia (human microglia [5]): inactive
- Solubility [6]: soluble
- blocking of Aβ1-42 induced microglial neurotoxicity by peptides [2]: blocked neurotoxin production
- IC50 [2]: 250 nM
- direct neurotoxicity without microglia (hippocampal neurons): did not produce neurotoxicity
- inhibition of SpheresAβ1-42 binding by peptides (microglia; 10 μmoles/l, 4 hours, 37° C.): effectively prevented
- induction of neurotoxic microglia / neuron killing ([9]; listed as 1-28): inactive

Compound: dextran sulfate
- inhibition of SpheresAβ1-42 binding by GAGs and scavenger receptor ligands (microglia; heparin sulfate 50 μg/ml, dextran sulfate 500 μg/ml, ac-LDL 200 μg/ml): only heparin sulfate blocked; also recorded: not similar compounds
- inhibition of Spheresmal-BSA binding by ligands (scavenger receptor; dextran sulfate 500 μg/ml, ac-LDL 200 μg/ml, Aβ1-16 10 μmole/l): blocked
